Assay [1] has as its system NCI-H460. The assay is described as follows: Inhibition of mitochondrial complex I NADH-ubiquinone oxidoreductase in human NCI-H460 cells at 1 uM incubated for 12 hrs by seahorse XF96 metabolic flux analyzer relative to control. Type of assay: cell-based.
The test system of assay [2] is NCI-H460. The assay is described as follows: Inhibition of mitochondrial complex II in human NCI-H460 cells at 1 uM incubated for 12 hrs by seahorse XF96 metabolic flux analyzer relative to control. Type of assay: cell-based.
Assay [3] relates to NCI-H460. The assay is described as follows: Inhibition of mitochondrial complex III in human NCI-H460 cells at 1 uM incubated for 12 hrs by seahorse XF96 metabolic flux analyzer relative to control. The class given is cell-based.
Assay [4] relates to NCI-H460. In words: Inhibition of mitochondrial complex IV in human NCI-H460 cells at 1 uM incubated for 12 hrs by seahorse XF96 metabolic flux analyzer relative to control. Type of assay: cell-based.
The test system of assay [5] is NCI-H460. In words: Inhibition of mitochondrial complex I NADH-ubiquinone oxidoreductase in human NCI-H460 cells assessed as reduction in oxygen consumption rate at 1 uM incubated for 12 hrs in presence of medium supplemented with pyruvate by seahorse XF96 metabolic flux analyzer. Type of assay: cell-based.
For assay [6], the system named is NCI-H460. The assay is described as follows: Inhibition of mitochondrial complex I NADH-ubiquinone oxidoreductase in human NCI-H460 cells assessed as reduction in oxygen consumption rate at 1 uM incubated for 12 hrs in presence of medium supplemented with malate by seahorse XF96 metabolic flux analyzer. The class given is cell-based.
The subject of assay [7] is NCI-H460. The assay is described as follows: Inhibition of mitochondrial complex I NADH-ubiquinone oxidoreductase in human NCI-H460 cells assessed as reduction in oxygen consumption rate at 1 uM incubated for 12 hrs in presence of medium supplemented with succinate by seahorse XF96 metabolic flux analyzer. The class given is cell-based.
Assay [8] deals with NCI-H460. The assay is described as follows: Inhibition of mitochondrial complex I NADH-ubiquinone oxidoreductase in human NCI-H460 cells assessed as reduction in NAD+/NADH ratio at 1 uM incubated for 12 hrs by WST-8 method. Type of assay: cell-based. A general note: Formazan colour is commonly taken as a measure of viable cells.
The test system of assay [9] is NCI-H460. In words: Inhibition of mitochondrial complex I NADH-ubiquinone oxidoreductase in human NCI-H460 cells assessed as reduction in NAD+/NADH ratio at 1 uM incubated for 12 hrs by WST-8 method relative to control. The class given is cell-based.
The subject of assay [10] is NCI-H460. In words: Antiproliferative activity against human NCI-H460 cells with high-OXPHOS assessed as reduction in cell viability incubated for 5 days by CellTiter 96 cell proliferation assay. Type of assay: functional, cell-based. The conditions noted are these: NCI-H460, 120 h.
The test system of assay [11] is NCI-H441. In words: Antiproliferative activity against human NCI-H441 cells with high-OXPHOS assessed as reduction in cell viability incubated for 5 days by CellTiter 96 cell proliferation assay. The class given is functional, cell-based. The conditions noted are these: NCI-H441, 120 h.
In assay [12] the test system is NCI-H358. In words: Antiproliferative activity against human NCI-H358 cells with low-OXPHOS assessed as reduction in cell viability incubated for 5 days by CellTiter 96 cell proliferation assay. The class given is functional, cell-based. The settings on record: NCI-H358, 120 h.
In assay [13] the test system is NCI-H460. The assay is described as follows: Inhibition of colony formation in human NCI-H460 cells with high-OXPHOS incubated for 7 days by crystal violet staining based analysis. The conditions noted are these: dose 250-1000 nM, time 7.0 day. Type of assay: functional, cell-based.
For assay [14], the system named is NCI-H441. The assay is described as follows: Inhibition of colony formation in human NCI-H441 cells with high-OXPHOS incubated for 7 days by crystal violet staining based analysis. The settings on record: dose 250-1000 nM, time 7.0 day. Type of assay: functional, cell-based.
For assay [15], the system named is NCI-H358. The assay is described as follows: Inhibition of colony formation in human NCI-H358 cells low-OXPHOS at 250 to 1000 nM incubated for 7 days by crystal violet staining based analysis. Type of assay: functional, cell-based. The settings on record: dose 250-1000 nM, time 7.0 day.
Assay [16] concerns A549. In words: Cytotoxicity against human A549 cells assessed as reduction in cell viability incubated for 72 hrs by CellTiter 96 cell proliferation assay. The class given is functional, cell-based. The settings on record: A549, 72 h.
In assay [17] the test system is A549. The assay is described as follows: Cytotoxicity against human Trametinib-resistant A549 cells assessed as reduction in cell viability incubated for 72 hrs by CellTiter 96 cell proliferation assay. The class given is functional, cell-based. The settings on record: A549, 72 h.
In assay [18] the test system is NCI-H460. In words: Induction of apoptosis in human NCI-H460 cells with high-OXPHOS harboring KRAS Q61H mutant assessed as early apoptotic cells at 500 nM incubated for 72 hrs by Annexin V-FITC/propidium iodide staining based flow cytometry analysis (reference value: 1.95%). The class given is functional.
In assay [19] the test system is NCI-H460. The assay is described as follows: Induction of apoptosis in human NCI-H460 cells with high-OXPHOS harboring KRAS Q61H mutant assessed as late apoptotic cells at 500 nM incubated for 72 hrs by Annexin V-FITC/propidium iodide staining based flow cytometry analysis (reference value: 5.68%). The class given is functional. A general note: Flow cytometry measures light scatter and fluorescence of single cells or particles in a stream.

Assay [20] relates to A549. In words: Induction of apoptosis in human Trametinib-resistant A549 cells with high-OXPHOS harboring KRAS G12S mutant assessed as early apoptotic cells at 500 nM incubated for 72 hrs by Annexin V-FITC/propidium iodide staining based flow cytometry analysis (reference value: 4.31%). Type of assay: functional.
The subject of assay [21] is A549. The assay is described as follows: Induction of apoptosis in human Trametinib-resistant A549 cells with high-OXPHOS harboring KRAS G12S mutant assessed as late apoptotic cells at 500 nM incubated for 72 hrs by Annexin V-FITC/propidium iodide staining based flow cytometry analysis (reference value: 4.27%). Type of assay: functional.

Active and inactive are the calls of the source. No cut-off for these calls is given here.

Among the data in ChEMBL document CHEMBL5380875, “Discovery of a Potent and Oral Available Complex I OXPHOS Inhibitor That Abrogates Tumor Growth and Circumvents MEKi Resistance” (J Med Chem, 2023) are inhibition, IC50 and Activity values, retold here.

`Cc1c(C(=O)N2CCN(Cc3ccc(OCC(F)(F)F)cc3)CC2)nnn1Cc1ccc(C(=O)Nc2cccc(C(F)(F)F)c2)nc1`: the inhibition in the assay on NCI-H460 [1] was 41.2%; in the assay with NCI-H460 [2], 1.2%; in the assay on NCI-H460 [3], 14%; in the assay with NCI-H460 [4], -0.1%; with NCI-H460 [9], 39.1%; in the assay with NCI-H460 [13], “Dose-Dependent Effect”. The inhibition result in the assay with NCI-H441 [14] is “Dose-Dependent Effect”. In addition, the inhibition result in the assay with NCI-H460 [5], with NCI-H460 [6] and in the assay on NCI-H460 [8] was “Active” throughout. In addition, the inhibition result with NCI-H460 [7] and in the assay on NCI-H358 [15] was “inactive” in each case. The half-inhibitory concentration (IC50) in the assay on NCI-H460 [10] was 257 nM; in the assay on NCI-H441 [11], 169 nM; in the assay on NCI-H358 [12], more than 10000 nM.

As for `CC(=O)Nc1cccc(-n2c(=O)n(C3CC3)c(=O)c3c(Nc4ccc(I)cc4F)n(C)c(=O)c(C)c32)c1` [TRAMETINIB], the 50% inhibitory concentration (IC50) in the assay with A549 [16] was found to be 296 nM; with A549 [17], 38100 nM. The Activity with NCI-H460 [18] was 2.51%; in the assay with NCI-H460 [19] it was 8.3%; with A549 [20], 6.94%; with A549 [21], 15.6%.

For orientation: inhibition means the relative decrease from the control value, in per cent. The IC50 is the concentration that inhibits the measured activity by half.
